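96-well plates; 48 h exposure; 5 concentrations. Endpoints by linear interpolation between flanking doses. Not reached: highest tested concentration assigned. GI50 marks 50% less growth.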 Calls of active or inactive are those of the source. Rule as the data show it: active = GI50 up to about 1.1 µM and inactive = higher.
Key:
Experiment in all cases: NCI tumour cell line growth inhibition, 48 h
KM-20L2 = test system: KM-20L2
M19-MEL = test system: M19-MEL
HOP-18 = test system: HOP-18
DLD-1 = test system: DLD-1
SNB-78 = test system: SNB-78
DMS-273 = test system: DMS-273
XF498 = test system: XF498
LXFL 529 = test system: LXFL 529
RXF 631 = test system: RXF 631

Row | SMILES | GI50 (KM-20L2) | GI50 (M19-MEL) | GI50 (HOP-18) | GI50 (DLD-1) | GI50 (SNB-78) | GI50 (DMS-273) | GI50 (XF498) | GI50 (LXFL 529) | GI50 (RXF 631)
1 | CCC(/C=C/C1OC(=O)C=CC1C)=C\C(C)C/C=C/C(C)=C/C(C)C(=O)C(C)C(O)C(C)C/C(C)=C/C(=O)O (centres undefined) | 4.13 µM (inactive) | 1.16 µM (inactive) | 6.04 µM (inactive) | 1.43 µM (inactive) | 3.21 µM (inactive) | 1.1 µM (active) | – | – | –
2 | CC1(C)CC[C@]2(C(=O)O)CCC3(C)C(=CCC4[C@@]5(C)CC[C@H](OC6OCC(O)C(O)C6OC6OC(CO)C(O)C(O)C6O)C(C)(C)C5CC[C@]43C)C2C1 (some centres undefined) | 2.02 µM (inactive) | 1.83 µM (inactive) | 1.95 µM (inactive) | 8.61 µM (inactive) | 2.76 µM (inactive) | 2.06 µM (inactive) | 1.94 µM (inactive) | 1.9 µM (inactive) | 1.74 µM (inactive)
3 | CCOC(=O)C(=O)Nc1c(F)cc(F)cc1Br | > 100 µM (inactive) | > 100 µM (inactive) | – | > 100 µM (inactive) | > 100 µM (inactive) | – | > 100 µM (inactive) | > 100 µM (inactive) | –
4 | CC(Cn1c2c3ccccc3ccc2c2oc(=O)c3ccccc3c21)N(C)C (centres undefined) | > 100 µM (inactive) | – | – | > 100 µM (inactive) | > 100 µM (inactive) | – | > 100 µM (inactive) | > 100 µM (inactive) | –
5 | Cc1cc(CC(O)c2ccc(Cl)c(Cl)c2)nc(O)n1 (centres undefined) | 51.1 µM (inactive) | 58.6 µM (inactive) | – | 18.7 µM (inactive) | 76.2 µM (inactive) | – | 18.4 µM (inactive) | 20.9 µM (inactive) | –
6 | COc1ccc(/C=C2\CCCCC2=O)cc1 | > 100 µM (inactive) | > 100 µM (inactive) | > 100 µM (inactive) | > 100 µM (inactive) | > 100 µM (inactive) | > 100 µM (inactive) | > 100 µM (inactive) | > 100 µM (inactive) | –
7 | COC(OC)[C@@H](C)[C@H](O)[C@](C)(O)C1OC(C)(C)OC(C(C)C=C(C)C)C1C (some centres undefined) | > 100 µM (inactive) | > 100 µM (inactive) | > 100 µM (inactive) | > 100 µM (inactive) | > 100 µM (inactive) | > 100 µM (inactive) | > 100 µM (inactive) | > 100 µM (inactive) | –
8 | CCc1cccc(C(C)CC)c1NC(=O)C(=O)C(CC(=O)Nc1ccc(Cl)c(Cl)c1)C(=O)OC (centres undefined) | 19.8 µM (inactive) | 36.8 µM (inactive) | – | > 100 µM (inactive) | > 100 µM (inactive) | 15.9 µM (inactive) | – | 16.7 µM (inactive) | –
9 | Cc1ccc(Nc2nc(-c3ccc(-c4ccc([N+](=O)[O-])cc4)o3)cs2)cc1 | 29.6 µM (inactive) | 51.2 µM (inactive) | – | 41.4 µM (inactive) | 66.5 µM (inactive) | 42.6 µM (inactive) | – | 29.3 µM (inactive) | –
10 | CC(=O)OCC1OC(OC2CC3C(C)(C)C(OC(C)=O)CC[C@]3(C)C3CCC45CC4(CC[C@H]5C(C)CC(O)C4OC4(C)C)[C@]23C)C(O)C(O)C1O (some centres undefined) | 1.85 µM (inactive) | 1.93 µM (inactive) | 2.2 µM (inactive) | 1.79 µM (inactive) | 5.71 µM (inactive) | 1.99 µM (inactive) | 1.53 µM (inactive) | 3.11 µM (inactive) | 2.32 µM (inactive)
11 | O=C(O)C#CCO | – | > 100 µM (inactive) | – | – | > 100 µM (inactive) | > 100 µM (inactive) | > 100 µM (inactive) | > 100 µM (inactive) | > 100 µM (inactive)
12 | COc1ccccc1NC(=O)C(CC(C(=O)Nc1ccccc1OC)/C(C)=N/NC(=O)c1ccccc1O)/C(C)=N/NC(=O)c1ccccc1O (centres undefined) | > 100 µM (inactive) | > 100 µM (inactive) | – | 57.5 µM (inactive) | > 100 µM (inactive) | > 100 µM (inactive) | > 100 µM (inactive) | 66.4 µM (inactive) | 69.8 µM (inactive)
13 | COC(=O)C(c1ccc(OC)cc1)N1C(=O)[C@@H](NC(=O)c2ccccc2)[C@H]1[C@@H](C)O (some centres undefined) | > 100 µM (inactive) | > 100 µM (inactive) | – | > 100 µM (inactive) | > 100 µM (inactive) | > 100 µM (inactive) | > 100 µM (inactive) | > 100 µM (inactive) | –
14 | CSc1ccc2c(cc1=O)[C@@H](NC(=O)c1ccc(F)cc1)CCc1cc(O)c(O)c(O)c1-2 | > 100 µM (inactive) | > 100 µM (inactive) | > 100 µM (inactive) | > 100 µM (inactive) | > 100 µM (inactive) | > 100 µM (inactive) | – | > 100 µM (inactive) | > 100 µM (inactive)
15 | N=C(N)NS(=O)(=O)c1ccc(NC(=O)c2cccc3c(Nc4ccc(S(=O)(=O)N=C(N)N)cc4)c4ccc(Cl)cc4nc23)cc1 | 74.8 µM (inactive) | – | > 100 µM (inactive) | 67.1 µM (inactive) | 81.3 µM (inactive) | > 100 µM (inactive) | 67.3 µM (inactive) | 33 µM (inactive) | –
16 | COc1ccc2c(=O)c(-c3cc(OC)c(OC)cc3OC)coc2c1 | 2.05 µM (inactive) | 4.15 µM (inactive) | – | 3.95 µM (inactive) | 4.21 µM (inactive) | 1.85 µM (inactive) | 2.58 µM (inactive) | 6.27 µM (inactive) | 5.4 µM (inactive)
17 | Cc1nc(Nc2ccc(Cl)c(Cl)c2)sc1C(/C=C/c1ccc2c(c1)OCO2)=N/Nc1ccc([N+](=O)[O-])cc1[N+](=O)[O-] | > 100 µM (inactive) | > 100 µM (inactive) | – | > 100 µM (inactive) | 2.27 µM (inactive) | 32 µM (inactive) | 13.9 µM (inactive) | > 68.5 µM (inactive) | –
18 | CN(C)CCCN1N=Nc2cccc3cccc1c23 | 54.3 µM (inactive) | > 51.4 µM (inactive) | 99.3 µM (inactive) | > 60.1 µM (inactive) | 62.4 µM (inactive) | 19.4 µM (inactive) | 86.9 µM (inactive) | > 50.9 µM (inactive) | 87.5 µM (inactive)
19 | COc1cccc(C2c3cc4c(cc3OC(O)(CO)C2C(=O)O)OCO4)c1.COc1cccc(C2c3cc4c(cc3OC3(O)COC(=O)C23)OCO4)c1 (centres undefined) | > 100 µM (inactive) | 76.9 µM (inactive) | > 100 µM (inactive) | 48.9 µM (inactive) | – | 65.3 µM (inactive) | – | 57.9 µM (inactive) | 75.5 µM (inactive)
20 | Nc1ncnc2c1ncn2CCCC(c1ccccc1)P(=O)(O)O (centres undefined) | > 100 µM (inactive) | > 100 µM (inactive) | – | > 100 µM (inactive) | > 100 µM (inactive) | > 100 µM (inactive) | > 100 µM (inactive) | > 100 µM (inactive) | –
21 | N#CC(C(=N/NC(N)=S)/C(=N\NC(N)=S)C(C#N)c1ccccc1)c1ccccc1 (centres undefined) | > 10 µM (inactive) | > 10 µM (inactive) | > 10 µM (inactive) | > 10 µM (inactive) | > 10 µM (inactive) | > 10 µM (inactive) | > 10 µM (inactive) | > 10 µM (inactive) | > 10 µM (inactive)
22 | O=[N+]([O-])c1cccc(C2=NN(c3ccccc3)C3c4ccccc4OCC23)c1 (centres undefined) | > 100 µM (inactive) | > 100 µM (inactive) | > 100 µM (inactive) | > 100 µM (inactive) | > 100 µM (inactive) | > 100 µM (inactive) | > 100 µM (inactive) | > 100 µM (inactive) | > 100 µM (inactive)
23 | O=C1/C(=C/c2ccccc2)CN(C(=O)Oc2ccc([N+](=O)[O-])cc2)C/C1=C\c1ccccc1 | 4.69 µM (inactive) | 1.77 µM (inactive) | > 10 µM (inactive) | 1.79 µM (inactive) | 5.16 µM (inactive) | 0.883 µM (active) | > 10 µM (inactive) | 2.02 µM (inactive) | –
24 | O=c1[nH]c2cc([N+](=O)[O-])ccc2nc1/C(=N/Nc1ccccc1)C(O)c1ccccc1Cl (centres undefined) | 14.9 µM (inactive) | 52.8 µM (inactive) | – | > 100 µM (inactive) | > 100 µM (inactive) | 34.8 µM (inactive) | > 100 µM (inactive) | 28.1 µM (inactive) | –
25 | O=[N+]([O-])c1ccc(-c2ccc(/C=N/n3c(S)nnc3-c3ccc(Cl)cc3)o2)cc1 | 28 µM (inactive) | 21.1 µM (inactive) | > 100 µM (inactive) | 41.6 µM (inactive) | > 50.6 µM (inactive) | 22.9 µM (inactive) | 19.5 µM (inactive) | 22.5 µM (inactive) | > 37.4 µM (inactive)
26 | COc1ccc2c(c1)c1ccc3c(c1n2C)C(=O)C=CC3=O | 38.5 µM (inactive) | 25.4 µM (inactive) | 12.2 µM (inactive) | 7.4 µM (inactive) | 20.9 µM (inactive) | 24.3 µM (inactive) | 17.2 µM (inactive) | 14.1 µM (inactive) | 20 µM (inactive)

Reference: ChEMBL document CHEMBL1201862, “PubChem BioAssay data set” (2004)
